Measurements from patent publication US20160317418A1, “METHOD OF IMPROVING THE APPEARANCE OF SKIN AND COMPOSITIONS THEREFOR” (The Procter & Gamble Company, priority 2015, published 2016).
“Also recorded” adds a separate entry of the source.

Legend:
[1] = tested on: HMGB1 protein released from keratinocytes; assay: In Vitro UV Stress Test: HMGB1 released from UVB-exposed keratinocytes (ELISA); assay type: cell-based, human; settings: for HMGB1 Released: 0.001 w/v % after 15 mJ/cm^2 UVB, 24 hours, UV untreated 19.4, no UV 10.5; for effect on amount of HMGB1 protein released by keratinocytes exposed to UVB (in words): compared to the untreated UVB exposed cells
Method: This example compares the ability of nicotinamide riboside and niacinamide to reduce the amount of HMGB1 protein released from keratinocytes subjected to stress from ultraviolet (“UV”) radiation. Human neonatal keratinocytes (available from Thermo) were placed in each well of four 12-well plates. Each well also contained 2 ml of EPILIFE brand keratinocyte medium. The plates were incubated at 37° C. in a CO2 incubator until cell confluency reached 70%. At this point, the cells, except for the negative control, were exposed to 15 mJ/cm^2 UVB (i.e., UV radiation with a wavelength of from 315-280 nm) in a BIO-SUN brand UV irradiating system (available from Vilber Lourmat, France). After UVB exposure, the keratinocyte medium in each well was replaced with an appropriate medium (i.e., niacinamide medium, nicotinamide riboside medium or a control medium) to produce the test plates. The test plates were incubated for 24 hours at 37° C. in a CO2 incubator, after which the medium in each cell was removed and the HMGB1 level measured using a conventional HMGB1 ELISA kit (REF # ST51011, available from IBL International, Canada) according to the manufacturer's instructions. The test media were made by adding either niacinamide or nicotinamide riboside to EPILIFE brand keratinocyte medium to produce a 0.001 w/v % solution. The control medium was unmodified keratinocyte medium.

[2] = tested on: human neonatal keratinocytes; assay: Melanosome Uptake Assay (CFDA-labeled melanosomes, flow cytometry); assay type: cell-based; settings: for % Uptake: 0.0025 w/v % in keratinocyte medium, fraction of keratinocytes with detectable CFDA, vehicle control 36; for Rate of Melanosome Uptake Versus Control: 0.0025 w/v %, vehicle control = 100%
Method: Melanosome uptake was determined as follows. Carboxyfluorescein diacetate (“CFDA”) (available from Sigma, St. Louis, Mo.) labeled melanosomes were prepared by incubating CFDA dye in SKMEL-188 culture cells (available from Sloan Kettering Institute) for 2 days at 37° C. in a THERMO SCIENTIFIC FORMA brand CO2 incubator (available from Fisher Scientific, Waltham, Mass.). On day 3 of the test, melanosomes were isolated from SKMEL-188 cells by step density centrifugation with sucrose solutions layered with different densities, which is well known in the art. Melanosomes were taken from the 1.6 M-2.0 M sucrose layers. The isolated melanosomes were placed in each well of a 6-well plate along with human neonatal keratinocytes (available from Thermo) (approximately 50,000 keratinocytes/well). 2 ml of the appropriate medium (i.e., the test composition, the positive control or the vehicle control) was added to each of the wells to produce […] (i.e., 3 replicates of each of three composition tested). The test composition was made by adding nicotinamide riboside chloride powder (available from Chromadex, Irvine, Calif.) to EPILIFE brand keratinocyte medium to produce a solution of 0.0025 w/v % nicotinamide riboside. The positive control was made by adding niacinamide to EPILIFE brand keratinocyte medium to produce a solution of 0.0025 w/v % niacinamide. Unmodified keratinocyte medium was used as a vehicle control.
The resulting test plates were incubated for two days in EPILIFE brand keratinocyte medium. On day 6 of the test, the keratinocytes were detached from the plates using trypsin and fluorescent-label counted by flow cytometry using an LSRFortessa brand flow cytometer (available from Becton Dickinson, NJ). The percentage of cells that had fluorescence (from CFDA label) was used as a metric to determine melanosome uptake. Keratinocytes containing detectable levels of CFDA were counted as a fraction of all keratinocytes passing through the flow cytometer (indicated as % uptake in Table 2). A higher percentage corresponds to a higher level of melanosome uptake into the keratinocytes.

Row | Compound | HMGB1 Released [1] [pg/mL] | effect on amount of HMGB1 protein released by keratinocytes exposed to UVB (in words) [1] | % Uptake [2] [%] | Rate of Melanosome Uptake Versus Control [2] [%] | effect on uptake of melanosomes from melanocytes into keratinocytes (in words) ([2]; compared to the vehicle control)
1 | Nicotinamide riboside [NR] | 11.5 | reduces the amount of HMGB1 protein released from keratinocytes; also recorded: released less HMGB1 protein | 67 | 186 | –
2 | NC(=O)c1cccnc1 [niacinamide, reference compound] | 17.8 | no significant effect | 26 | 72 | inhibit the rate of melanosome uptake
